# Test results taken from PubChem BioAssay AID2060513 (Molecular Pharmacology Branch, DTP, NCI, 2025).
# Several values for one entry are separate records, joined by “and”; a condition that tells them apart may be missing. Equal values may be shown once.
# Tested on: 299254-011-R-J1-PDC complex spheroids viability
# Assay: Anticancer human tumor 299254-011-R-J1-PDC patient-derived melanoma cell line growth inhibition [GQUAD]
# Conditions: for viability, T/C: stronger effect = lower value
# Description: DNA G-quadruplex Stabilizer Agents in Combinations in Complex Spheroids
# A high-throughput screen of multi-cell type tumor spheroids was designed to identify active combinations of DNA G-quadruplex stabilizer agents and targeted small molecules. Complex spheroids include a stromal component modeled by human endothelial cells (HUVEC) and fibroblasts modeled by human mesenchymal stem cells (MSCs). The concentration ranges selected for each drug and investigational agent were based upon clinically achievable concentrations if the clinical Cmax of the agent was known.
# Compounds. The drugs and investigational agents: pidnarulex (CX-5461; NSC782164), APTO-253 (NSC789042), BRACO-19 (NSC847499), peposertib (NSC802822), ceralasertib (NSC780249), elimusertib (NSC800525), camonsertib (NSC841442), AZD-1390 (NSC803789), olaparib (NSC753686), talazoparib (NSC767125), ART-558 (NSC835418), sotorasib (NSC818433), MRTX-1133 (NSC836407), SN-38 (NSC673596), topotecan (NSC609699), etoposide (NSC141540), doxorubicin (NSC123127), gemcitabine (NSC613327), 5-fluorouracil (NSC19893), paclitaxel (NSC125973), vemurafenib (NSC761431), panobinostat (NSC761190), R-306465 (JNJ-16241199; NSC773264), adavosertib (NSC754352), TP-3654 (NSC805149), carboplatin (NSC241240), KSQ-4279 (NSC840948), and staurosporine (NSC755774) were obtained from the National Cancer Institute (NCI) Developmental Therapeutics Program Chemical Repository (34). The FDA-approved anticancer drug set is available from the NCI Developmental Therapeutics Program. […] The stock solutions were prepared in dimethyl sulfoxide (DMSO, Sigma-Aldrich, St. Louis, MO, cat. D2650) at 800-fold the tested concentration and stored at -70 degrees C prior to their use. All drugs and investigational agents were tested over a range starting from a high concentration at or near the clinical Cmax and decreasing in half-log increments. If the clinical Cmax for an agent had not been determined, the highest concentration tested was 10 microM.
# 2.3 Cell Culture. All cells were maintained in an incubator at 37 degrees C and 5% CO2 with 95% humidity. The PDC lines were cultured according to standard operating procedures established by the NCI PDMR. All PDCs were thawed and cultured in Matrigel-coated flasks prepared with a working solution of 1X Ham's F-12 nutrient mix, without supplementation (Invitrogen, cat. 11765054), 100 U/mL penicillin-streptomycin (Invitrogen, cat. 15140122), and 2.5% Matrigel (Corning Inc., cat. 354248) for the first three passages. The 857933-349-R-J2-PDC line was cultured in 6C/Colon 1B media, which includes advanced DMEM/F-12 (Thermo Fisher Scientific, cat. 12634028), 10 mM HEPES (Thermo Fisher Scientific, cat. 15630080), 1X GlutaMAX supplement (Thermo Fisher Scientific, cat. 35050061), 0.1 mg/mL primocin (InvivoGen, cat. ant-pm-2), 10% defined fetal bovine serum, heat inactivated (HyClone Laboratories Inc., cat. SH30070.03HI), 50% L-WRN conditioned media (ATCC, cat. CRL-3276), 1.25 mM N-Acetyl-L-cysteine (Sigma-Aldrich, cat. A9165), 10 mM nicotinamide (Sigma-Aldrich, cat. N0636), 1X B-27 supplement (Thermo Fisher Scientific, cat. 17504044), 1X N-2 supplement (Thermo Fisher Scientific, cat. 17502048), 10 microM Y-27632 dihydrochloride (Tocris Bioscience, cat. 1254), and 50 ng/mL human EGF recombinant protein (Thermo Fisher Scientific, cat. PHG0311). The 485176-168-R4-J1-PDC line was cultured in Panc media, which includes all 6C/Colon 1B media components plus 100 ng/mL human FGF-10 (Thermo Fisher Scientific, cat. 100-26), 500 nM SB-431542 (Selleckchem, cat. S1067), and gastrin (Tocris, cat. 3006).
# […]
# [1] = curve of first compound, second compound 0.0316 µM
# [2] = curve of first compound, second compound 0.1 µM
# [3] = curve of first compound, second compound 0.316 µM
# [4] = curve of first compound, second compound 1 µM
# [5] = curve of first compound, second compound 3.16 µM
# [6] = curve of first compound, second compound 10 µM
# [7] = second compound 0.0316 µM, first compound 0.0316 µM
# [8] = second compound 0.0316 µM, first compound 0.1 µM
# [9] = second compound 0.0316 µM, first compound 0.316 µM
# [10] = second compound 0.0316 µM, first compound 1 µM
# [11] = second compound 0.0316 µM, first compound 3.16 µM
# [12] = second compound 0.0316 µM, first compound 10 µM
# [13] = second compound 0.1 µM, first compound 0.0316 µM
# [14] = second compound 0.1 µM, first compound 0.1 µM
# [15] = second compound 0.1 µM, first compound 0.316 µM
# [16] = second compound 0.1 µM, first compound 1 µM
# [17] = second compound 0.1 µM, first compound 3.16 µM
# [18] = second compound 0.1 µM, first compound 10 µM
# [19] = second compound 0.316 µM, first compound 0.0316 µM
# [20] = second compound 0.316 µM, first compound 0.1 µM
# [21] = second compound 0.316 µM, first compound 0.316 µM
# [22] = second compound 0.316 µM, first compound 1 µM
# [23] = second compound 0.316 µM, first compound 3.16 µM
# [24] = second compound 0.316 µM, first compound 10 µM
# [25] = second compound 1 µM, first compound 0.0316 µM
# [26] = second compound 1 µM, first compound 0.1 µM
# [27] = second compound 1 µM, first compound 0.316 µM
# [28] = second compound 1 µM, first compound 1 µM
# [29] = second compound 1 µM, first compound 3.16 µM
# [30] = second compound 1 µM, first compound 10 µM
# [31] = second compound 3.16 µM, first compound 0.0316 µM
# [32] = second compound 3.16 µM, first compound 0.1 µM
# [33] = second compound 3.16 µM, first compound 0.316 µM
# [34] = second compound 3.16 µM, first compound 1 µM
# [35] = second compound 3.16 µM, first compound 3.16 µM
# [36] = second compound 3.16 µM, first compound 10 µM
# [37] = second compound 10 µM, first compound 0.0316 µM
# [38] = second compound 10 µM, first compound 0.1 µM
# [39] = second compound 10 µM, first compound 0.316 µM
# [40] = second compound 10 µM, first compound 1 µM
# [41] = second compound 10 µM, first compound 3.16 µM
# [42] = second compound 10 µM, first compound 10 µM
# 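Note: spheroids exposed to the agents for seven days before readout.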
# 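Throughout, for viability, T/C: percent viability relative to DMSO vehicle control wells = 100%.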
smiles,measurement,setting,value
CCCS(=O)(=O)Nc1ccc(F)c(C(=O)c2c[nH]c3ncc(-c4ccc(Cl)cc4)cc23)c1F + Cc1cnc(CNC(=O)c2c(=O)c3ccc(N4CCCN(C)CC4)nc3n3c2sc2ccccc23)cn1,IC50,[1],9.46 µM
same,IC50,[2],8.9 µM
same,IC50,[3],9.48 µM
same,IC50,[4],8.5 µM
same,IC50,[5],7.67 µM
same,IC50,[6],< 0.0316 µM
same,"viability, T/C",[7],107%
same,"viability, T/C",[8],94%
same,"viability, T/C",[9],83.1%
same,"viability, T/C",[10],106%
same,"viability, T/C",[11],130%
same,"viability, T/C",[12],47.1%
same,"viability, T/C",[13],119%
same,"viability, T/C",[14],129%
same,"viability, T/C",[15],92.9%
same,"viability, T/C",[16],128%
same,"viability, T/C",[17],116%
same,"viability, T/C",[18],42.6%
same,"viability, T/C",[19],92.8%
same,"viability, T/C",[20],109%
same,"viability, T/C",[21],92.9%
same,"viability, T/C",[22],99%
same,"viability, T/C",[23],113%
same,"viability, T/C",[24],47.5%
same,"viability, T/C",[25],88.5%
same,"viability, T/C",[26],85%
same,"viability, T/C",[27],105%
same,"viability, T/C",[28],96.8%
same,"viability, T/C",[29],106%
same,"viability, T/C",[30],42.4%
same,"viability, T/C",[31],85.5%
same,"viability, T/C",[32],96.6%
same,"viability, T/C",[33],106%
same,"viability, T/C",[34],91.5%
same,"viability, T/C",[35],118%
same,"viability, T/C",[36],35.1%
same,"viability, T/C",[37],4.58%
same,"viability, T/C",[38],0.48%
same,"viability, T/C",[39],0.57%
same,"viability, T/C",[40],0.54%
same,"viability, T/C",[41],0.42%
same,"viability, T/C",[42],0.34%
CC1COCCN1c1cc(C2(O)CC3CCC(C2)O3)c2cnn(-c3ccn[nH]3)c2n1 (configuration not stated),"viability, T/C",compound 0.0316 µM,116% and 87.6% and 93.3%
same,"viability, T/C",compound 0.1 µM,42.7% and 48.7% and 67.2%
same,"viability, T/C",compound 0.316 µM,23.7% and 29.9% and 29.5%
same,"viability, T/C",compound 1 µM,12.7% and 12.4% and 18.8%
same,"viability, T/C",compound 3.16 µM,10.2% and 10.5% and 10.9%
same,"viability, T/C",compound 10 µM,4.19% and 8.01% and 5.02%
same,IC50,curve of compound,0.0926 µM and 0.0992 µM and 0.173 µM
CC(C)n1c(=O)n(C)c2cnc3cc(F)c(-c4ccc(OCCCN5CCCCC5)nc4)cc3c21,"viability, T/C",compound 0.0316 µM,104% and 100% and 97%
same,"viability, T/C",compound 0.1 µM,87.8% and 78.1% and 79%
same,"viability, T/C",compound 0.316 µM,102% and 101% and 90.2%
same,"viability, T/C",compound 1 µM,104% and 76.4% and 83.5%
same,"viability, T/C",compound 3.16 µM,93% and 75% and 78.9%
same,"viability, T/C",compound 10 µM,55.8% and 48.2% and 48.6%
same,IC50,curve of compound,> 10 µM and 9.52 µM and 9.66 µM
COc1cccc2c1C(=O)c1c(O)c3c(c(O)c1C2=O)CC(O)(C(=O)CO)CC3OC1CC(N)C(O)C(C)O1 (configuration not stated),"viability, T/C",compound 0.0316 µM,107% and 92.6% and 98%
same,"viability, T/C",compound 0.1 µM,99.6% and 107% and 89.3%
same,"viability, T/C",compound 0.316 µM,88.1% and 81.5% and 113%
same,"viability, T/C",compound 1 µM,75.9% and 86.5% and 81.4%
same,"viability, T/C",compound 3.16 µM,60.2% and 77% and 70.5%
same,"viability, T/C",compound 10 µM,21.2% and 28% and 20.3%
same,IC50,curve of compound,3.89 µM and 5.82 µM and 4.94 µM
CC1COCCN1c1cc(C2(S(C)(=N)=O)CC2)nc(-c2ccnc3[nH]ccc23)n1 (configuration not stated),"viability, T/C",compound 0.0316 µM,98.9% (2×) and 94.3%
same,"viability, T/C",compound 0.1 µM,100% and 103% and 80.5%
same,"viability, T/C",compound 0.316 µM,79.7% and 97% and 97.8%
same,"viability, T/C",compound 1 µM,68% and 100% and 61%
same,"viability, T/C",compound 3.16 µM,67.9% and 60.8% and 37.7%
same,"viability, T/C",compound 10 µM,28.7% and 29.5% and 16.5%
same,IC50,curve of compound,4.41 µM and 4.7 µM and 1.81 µM
CC1COCCN1c1cc(-c2ccnn2C)c2ccnc(-c3ccn[nH]3)c2n1 (configuration not stated) + Cc1cnc(CNC(=O)c2c(=O)c3ccc(N4CCCN(C)CC4)nc3n3c2sc2ccccc23)cn1,IC50,[1],0.114 µM
same,IC50,[2],0.121 µM
same,IC50,[3],< 0.0316 µM
same,IC50,[4],< 0.0316 µM
same,IC50,[5],< 0.0316 µM
same,IC50,[6],< 0.0316 µM
same,"viability, T/C",[7],99.1%
same,"viability, T/C",[8],48.2%
same,"viability, T/C",[9],37.9%
same,"viability, T/C",[10],17.6%
same,"viability, T/C",[11],20%
same,"viability, T/C",[12],13.2%
same,"viability, T/C",[13],84.5%
same,"viability, T/C",[14],55.3%
same,"viability, T/C",[15],23.4%
same,"viability, T/C",[16],14.4%
same,"viability, T/C",[17],17.2%
same,"viability, T/C",[18],12.9%
same,"viability, T/C",[19],40.9%
same,"viability, T/C",[20],32.9%
same,"viability, T/C",[21],23.6%
same,"viability, T/C",[22],17.5%
same,"viability, T/C",[23],16.8%
same,"viability, T/C",[24],12.6%
same,"viability, T/C",[25],22%
same,"viability, T/C",[26],22.2%
same,"viability, T/C",[27],22.3%
same,"viability, T/C",[28],18.8%
same,"viability, T/C",[29],13%
same,"viability, T/C",[30],15.2%
same,"viability, T/C",[31],26.5%
same,"viability, T/C",[32],26.2%
same,"viability, T/C",[33],18%
same,"viability, T/C",[34],13.4%
same,"viability, T/C",[35],14.9%
same,"viability, T/C",[36],16.7%
same,"viability, T/C",[37],0.18%
same,"viability, T/C",[38],0.22%
same,"viability, T/C",[39],2.32%
same,"viability, T/C",[40],0.18%
same,"viability, T/C",[41],0.23%
same,"viability, T/C",[42],0.22%
